Legend:
HeLa cells = test: Permeability of free dye and probes in live cells (fluorescence imaging); format: cell-based, human; settings: live HeLa cells, probes 24 μM (AAN 5 μM), 1 h, 37 °C, one-photon fluorescence imaging with LysoTracker
Description: Supplementary Figure 5. Detection of caspase activities in live mammalian cells. (a) One-photon images of AAN (5 μM)/probes (24 μM)/DMSO (blank) in live HeLa cells after 1-h incubation together with LysoTracker. (Panels 1-7) bright field; (Panels 8-14) λex = 405 nm, λem = 420-480 nm (indicative of probes, blue); (Panels 15-21) λex = 405 nm, λem = 470-500 nm (indicative of AAN, green); (Panels 22-28) LysoTracker (λex = 543 nm, λem = 560-615 nm, red); (Panels 29-35) merged images of blue/red channels. Scale bar: 20 μm. (b) Bioimaging of NIH/3T3 cells transfected with active caspase-1 (Panels 2/3/5/6; 50 ng)/caspase-3 (Panels 8/9; 15 ng)/caspase-8 (Panels 11/12; 5 ng) with/without inhibitor treatment (Panels 3/6/9/12, 50 μM of Z-VAD-FMK incubated for 1 h before probes were added) as well as control cells (Panels 1/4/7/10, no caspase transfection) by using C1RB (24 μM)/C1FS (12 μM) for caspase-1, C3RA (24 μM) for caspase-3 and C8RA (24 μM) for caspase-8. Cells were co-stained with membrane tracker. (Green) signals from caspase-cleaved probes (λex = 760 nm, λem = 480-550 nm for all probes, except for C1FS with λem = 450-550 nm). (Red) membrane tracker (λex = 650 nm, λem = 655-740 nm). (Inset) bright field. Scale bar = 10 μm. […]
XTT assay. The cytotoxicity of our probes was determined by using the XTT colorimetric cell proliferation kit (Roche) following manufacturer’s guidelines. […]

[1] = tested on: caspase-3/-7-like activities in brain slices; test: TPFM of caspase-3 activation in brain slices of ethanol-intoxicated mouse; settings: 200 μM, 3 h prior to C3RA
Description: Figure 4 Imaging endogenous caspase activities in deep tissues. (a) TPFM of caspase-3 activation in brain slices of ethanol-intoxicated 7-day-old C57BL/6 mouse using C3RA (120 μM, 3 h). Top: 3D images of the mouse brain slice taken along the Z-axis from 0 to 160 μm at 10x magnification. Bottom: images taken at a depth of 120 μm at 40x magnification. […]: control slices (saline-treated); panels 2/6/4/8: treated with caspase-3/7 inhibitor I (200 μM, 3 h). Scale bar = 50 μm. (b) RFU readings extracted from (a) (FTPFM, blue bars) versus those from in vitro enzymatic assays using lysates from the same brain slices (RFU, orange bars). The signal from saline controls was set as “0” and that from ethanol-treated samples was set as “1” in RFU quantification. Due to the base-level active caspase-3 in the saline controls, negative readings were shown with inhibitor-treated samples. (c) WB analysis of caspase-3/-1/-8 activation in lysates of the same mouse brain slices shown in (a). (d) Normalized RFU readings from in vitro enzymatic assays using brain lysates (300 μg) of saline/ethanol treated mice after incubation with C1RB/C3RA/C8RA (6 μM) for 1 h at 37 °C.
All two-photon images were taken on a Leica TCS SP5X Confocal Microscope System. […]

cell permeability (HeLa cells) | SMILES | effect of inhibitor pre-treatment on C3RA fluorescence in brain slices [1]
diffuse freely | CC(=O)c1ccc2cc(N)ccc2c1 [AAN, 2-acetyl-6-aminonaphthalene, reference compound] | –
– | COC[C@@H]1CCCN1S(=O)(=O)c1ccc2c(c1)C(=O)C(=O)N2 [caspase-3/7 inhibitor I, reference compound] | completely abolished the fluorescence

Source: publication PMC4876444, “Two-Photon Enzymatic Probes Visualizing Sub-cellular/Deep-brain Caspase Activities in Neurodegenerative Models” (Scientific Reports, 2016)
